The text below walks through data of ChEMBL document CHEMBL1140568, “Trisubstituted pyrimidines as transient receptor potential vanilloid 1 (TRPV1) antagonists with improved solubility” (Bioorg Med Chem Lett, 2007).

The target in data set [1] is T1, Transient receptor potential cation channel subfamily V member 1 (Rattus norvegicus, UniProt O35433). Description: Antagonist activity at rat TRPV1 expressed in CHO cells assessed inhibition of capsaicin induced calcium influx. Type of data set: functional, cell-based.
T1 sequence (O35433 whole entry): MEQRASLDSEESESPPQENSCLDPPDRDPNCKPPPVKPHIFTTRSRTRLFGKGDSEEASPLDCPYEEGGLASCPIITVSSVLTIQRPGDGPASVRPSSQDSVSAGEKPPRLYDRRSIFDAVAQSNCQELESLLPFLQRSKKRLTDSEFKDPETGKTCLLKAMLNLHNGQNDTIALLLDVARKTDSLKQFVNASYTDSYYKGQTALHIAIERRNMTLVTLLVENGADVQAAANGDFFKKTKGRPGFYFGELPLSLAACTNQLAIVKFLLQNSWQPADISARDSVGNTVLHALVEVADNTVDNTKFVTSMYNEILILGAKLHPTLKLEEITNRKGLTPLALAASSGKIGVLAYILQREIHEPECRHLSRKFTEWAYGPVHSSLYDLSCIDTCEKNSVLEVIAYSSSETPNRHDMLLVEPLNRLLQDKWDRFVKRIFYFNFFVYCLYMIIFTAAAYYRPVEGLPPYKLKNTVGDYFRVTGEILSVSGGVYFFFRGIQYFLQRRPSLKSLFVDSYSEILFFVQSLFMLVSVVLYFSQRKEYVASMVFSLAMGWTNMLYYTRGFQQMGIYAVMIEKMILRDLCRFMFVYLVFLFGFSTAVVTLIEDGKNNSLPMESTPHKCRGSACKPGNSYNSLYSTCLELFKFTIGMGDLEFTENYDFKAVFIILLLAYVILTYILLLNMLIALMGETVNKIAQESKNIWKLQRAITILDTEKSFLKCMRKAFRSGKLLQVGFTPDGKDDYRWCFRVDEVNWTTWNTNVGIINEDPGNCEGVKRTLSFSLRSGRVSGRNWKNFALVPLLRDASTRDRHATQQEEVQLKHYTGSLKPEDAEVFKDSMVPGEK
For data set [2], the target named is T1, Transient receptor potential cation channel subfamily V member 1. Description: Antagonist activity at rat TRPV1 expressed in CHO cells assessed inhibition of acid induced calcium influx. Type of data set: functional, cell-based.
A short description of data set [3]: Aqueous solubility in 0.01N HCl. The format is physicochemical.
Data set [4] in a line: Aqueous solubility in PBS at pH 7. The format is physicochemical.
Data set [5] in a line: Aqueous solubility in fasted-state stimulated intestinal fluid at pH 6.8. The format is physicochemical. To be noted: fasted-state simulated intestinal fluid.
Data set [6] can be described thus: AUC (0 to infinity) in Sprague-Dawley rat at 1 mg/kg, iv. Type of data set: ADME, organism-based. Also noted: time infinity, dose 1 mg/kg, route intravenous. To be noted: plasma.
Data set [7] is described as follows: Clearance in Sprague-Dawley rat at 1 mg/kg, iv. The format is ADME, organism-based. Set-up: dose 1 mg/kg, route intravenous. To be noted: in vivo.
Data set [8] in a line: Volume of distribution at steady state in Sprague-Dawley rat at 1 mg/kg, iv. Type of data set: ADME, organism-based. Set-up: dose 1 mg/kg, route intravenous. To be noted: in vivo, read-out: Vdss.
Data set [9] in a line: Half life in Sprague-Dawley rat at 1 mg/kg, iv. Type of data set: ADME, organism-based. Set-up: dose 1 mg/kg, route intravenous. To be noted: in vivo.
Data set [10] can be described thus: AUC (0 to infinity) in Sprague-Dawley rat at 5 mg/kg, po. Type of data set: ADME, organism-based. Also noted: time infinity, dose 5 mg/kg, route oral. To be noted: plasma.
Data set [11] can be described thus: Cmax in Sprague-Dawley rat at 5 mg/kg, po. Type of data set: ADME, organism-based. Set-up: dose 5 mg/kg, route oral. The note with it: in vivo.
A short description of data set [12]: Oral bioavailability in Sprague-Dawley rat at 5 mg/kg. Type of data set: ADME, organism-based. The note with it: in vivo.

Each structure is given as a SMILES string. Values after ≈ are worked out from the molar mass of the structure shown. Bounds are passed on as bounds.

In the case of `CC(=O)Nc1nc2c(Oc3cc(-c4ccc(C(F)(F)F)cc4)nc(N4CCC(O)CC4)n3)cccc2s1`, the results for the IC50 in [1] and in [2] were 35 nM and 90 nM, respectively. Further, the solubility in data set [3] was 21 µg/mL (≈ 39.7 µM); in data set [4] it was 2 µg/mL (≈ 3.78 µM); in [5], 12 µg/mL (≈ 22.7 µM).

For `CC(=O)Nc1nc2c(Oc3cc(-c4ccc(C(F)(F)F)cc4)nc(N4CCC(C(=O)O)CC4)n3)cccc2s1`, the IC50 is 410 nM in data set [1] and 27 nM in [2]. In addition, the solubility in data set [3] is at most 1 µg/mL; in data set [4] it was 6 µg/mL (≈ 10.8 µM); in [5], 3.4 µg/mL (≈ 6.1 µM).

On to `CC(=O)Nc1nc2c(Oc3cc(-c4ccc(C(F)(F)F)cc4)nc(N4CCCCC4)n3)cccc2s1`, for which the results for the IC50 in [1] and in data set [2] were 5.1 nM and 1.5 nM, respectively. Besides, the figures for the solubility in data set [3], in [4] and in data set [5] were at most 1 µg/mL, at most 1 µg/mL and 2.8 µg/mL (≈ 5.45 µM), respectively.

As to `CC(=O)Nc1nc2c(Oc3cc(-c4ccc(C(F)(F)F)cc4)nc(C4=CCN(CC(C)C)CC4)n3)cccc2s1`, the AUC(0-inf) in data set [6] turned out to be 258 ng·h/mL. Besides, in data set [7], the clearance was 67.3 mL/min/kg. Also, the Vd in data set [8] was found to be 6.38 L/kg. The same molecule had a half-life in [9] of 2 h.

With `CC(=O)Nc1nc2c(Oc3cc(-c4ccc(C(F)(F)F)cc4)nc(N)n3)cccc2s1`, the IC50 amounted to 12 nM in data set [1] and 4.8 nM in data set [2]. The solubility in data set [3] is 4.7 µg/mL (≈ 10.6 µM); in [4], 8.8 µg/mL (≈ 19.8 µM); in data set [5], 3.5 µg/mL (≈ 7.86 µM).

For the molecule `CC(=O)Nc1nc2c(Oc3cc(-c4ccc(C(F)(F)F)cc4)nc(N4CCOCC4)n3)cccc2s1`, the IC50 was 28 nM in data set [1] and 1.1 nM in data set [2]. For the same molecule, the solubility is at most 1 µg/mL in data set [3], at most 1 µg/mL in data set [4] and 1.4 µg/mL (≈ 2.72 µM) in data set [5].

Take `CC(=O)Nc1nc2c(Oc3cc(-c4ccc(C(F)(F)F)cc4)nc(NCC4CCN(CC(C)C)CC4)n3)cccc2s1`: the IC50 in [1] stood at 51 nM; in data set [2] it was 64 nM. Moreover, the solubility in data set [3] was at least 200 µg/mL; in data set [4], 9.4 µg/mL (≈ 15.7 µM); in data set [5], at least 200 µg/mL.

As for `CC(=O)Nc1nc2c(Oc3cc(-c4ccc(C(F)(F)F)cc4)nc(NCC4CCCCN4CC(C)C)n3)cccc2s1` (configuration not stated), the IC50 stood at 6.1 nM in data set [1] and 11 nM in data set [2]. The solubility in data set [3] is at least 200 µg/mL; in [4], 9.1 µg/mL (≈ 15.2 µM); in data set [5], 190 µg/mL (≈ 317 µM). In data set [6], this molecule registered an AUC(0-inf) of 351 ng·h/mL. In addition, in data set [7], the clearance was 47.7 mL/min/kg. The Vd in data set [8] is 8.29 L/kg. Further, in data set [9], the half-life was 2.6 h.

As to `CC(=O)Nc1nc2c(Oc3cc(-c4ccc(C(F)(F)F)cc4)nc(NC(C)c4ccccn4)n3)cccc2s1` (configuration not stated), the results for the IC50 in [1] and in data set [2] were 1.5 nM and 1.6 nM, respectively. The solubility in [3] was at least 200 µg/mL; in data set [4], 6.7 µg/mL (≈ 12.2 µM); in data set [5], 150 µg/mL (≈ 272 µM). Besides, the AUC(0-inf) in data set [6] is 743 ng·h/mL; in data set [10], 899 ng·h/mL. Further, the clearance in [7] is 22.5 mL/min/kg. Further, in [8], the Vd was found to be 6.44 L/kg. In data set [9], this molecule showed a half-life of 5.5 h. Further, in [11], the Cmax is 280 ng/mL. Moreover, the bioavailability in [12] stood at 24%.

With `CC(=O)Nc1nc2c(Oc3cc(-c4ccc(C(F)(F)F)cc4)ncn3)cccc2s1` [AMG-517], the solubility in [3] and in [4] was under 1 µg/mL throughout.
